From PubChem BioAssay (NCI)
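How tested: cells in 96-well plates exposed to compound for 48 hours at five concentrations. At the GI50, growth is halved. At the TGI there is no net growth.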

Assays:
Test in all cases: NCI tumour cell line growth inhibition, 48 h
786-0 renal = test system: 786-0 renal
A498 renal = test system: A498 renal
A549 NSCLC = test system: A549 NSCLC
ACHN renal = test system: ACHN renal
BT-549 breast = test system: BT-549 breast
CAKI-1 renal = test system: CAKI-1 renal
CCRF-CEM leukemia = test system: CCRF-CEM leukemia
COLO 205 colon = test system: COLO 205 colon
DU-145 prostate = test system: DU-145 prostate
EKVX NSCLC = test system: EKVX NSCLC
HCC-2998 colon = test system: HCC-2998 colon
HCT-116 colon = test system: HCT-116 colon
HCT-15 colon = test system: HCT-15 colon
HOP-62 NSCLC = test system: HOP-62 NSCLC
HOP-92 NSCLC = test system: HOP-92 NSCLC
HS 578T breast = test system: HS 578T breast
HT29 colon = test system: HT29 colon
IGROV1 ovarian = test system: IGROV1 ovarian
K-562 leukemia = test system: K-562 leukemia
KM12 colon = test system: KM12 colon
LOX IMVI melanoma = test system: LOX IMVI melanoma
M14 melanoma = test system: M14 melanoma
MCF7 breast = test system: MCF7 breast
MDA-MB-231 breast = test system: MDA-MB-231 breast
MDA-MB-435 = test system: MDA-MB-435
MOLT-4 leukemia = test system: MOLT-4 leukemia
NCI-H226 lung = test system: NCI-H226 lung
NCI-H23 lung = test system: NCI-H23 lung
NCI-H522 lung = test system: NCI-H522 lung
NCI/ADR-RES ovarian = test system: NCI/ADR-RES ovarian
OVCAR-3 ovarian = test system: OVCAR-3 ovarian
OVCAR-4 ovarian = test system: OVCAR-4 ovarian
OVCAR-5 ovarian = test system: OVCAR-5 ovarian
OVCAR-8 ovarian = test system: OVCAR-8 ovarian
PC-3 prostate = test system: PC-3 prostate
RPMI-8226 leukemia = test system: RPMI-8226 leukemia
RXF 393 renal = test system: RXF 393 renal
SF-268 CNS = test system: SF-268 CNS
SF-295 CNS = test system: SF-295 CNS
SF-539 CNS = test system: SF-539 CNS
SK-MEL-2 melanoma = test system: SK-MEL-2 melanoma
SK-MEL-28 melanoma = test system: SK-MEL-28 melanoma
SK-MEL-5 melanoma = test system: SK-MEL-5 melanoma
SK-OV-3 ovarian = test system: SK-OV-3 ovarian
SN12C renal = test system: SN12C renal
SNB-19 CNS = test system: SNB-19 CNS
SNB-75 CNS = test system: SNB-75 CNS
SR leukemia = test system: SR leukemia
SW-620 colon = test system: SW-620 colon
T-47D breast = test system: T-47D breast
TK-10 renal = test system: TK-10 renal
U251 CNS = test system: U251 CNS
UACC-257 melanoma = test system: UACC-257 melanoma
UACC-62 melanoma = test system: UACC-62 melanoma
UO-31 renal = test system: UO-31 renal
HL-60(TB) leukemia = test system: HL-60(TB) leukemia
MALME-3M melanoma = test system: MALME-3M melanoma
NCI-H460 lung = test system: NCI-H460 lung

Cn1c(=O)c2c(n(C)c1=O)n1c(=O)c3ccccc3nc1n2C
TGI (786-0 renal): > 100 µM
TGI (A498 renal): > 100 µM
TGI (A549 NSCLC): > 100 µM
TGI (ACHN renal): > 100 µM
TGI (BT-549 breast): > 100 µM
TGI (CAKI-1 renal): > 100 µM
TGI (CCRF-CEM leukemia): > 100 µM
TGI (COLO 205 colon): > 100 µM
TGI (DU-145 prostate): > 100 µM
TGI (EKVX NSCLC): > 100 µM
TGI (HCC-2998 colon): > 100 µM
TGI (HCT-116 colon): > 100 µM
TGI (HCT-15 colon): > 100 µM
TGI (HOP-62 NSCLC): > 100 µM
TGI (HOP-92 NSCLC): > 100 µM
TGI (HS 578T breast): > 100 µM
TGI (HT29 colon): > 100 µM
TGI (IGROV1 ovarian): > 100 µM
TGI (K-562 leukemia): > 100 µM
TGI (KM12 colon): > 100 µM
TGI (LOX IMVI melanoma): > 100 µM
TGI (M14 melanoma): > 100 µM
TGI (MCF7 breast): > 100 µM
TGI (MDA-MB-231 breast): > 100 µM
TGI (MDA-MB-435): > 100 µM
TGI (MOLT-4 leukemia): > 100 µM
TGI (NCI-H226 lung): 73.2 µM
TGI (NCI-H23 lung): > 100 µM
TGI (NCI-H522 lung): > 100 µM
TGI (NCI/ADR-RES ovarian): > 100 µM
TGI (OVCAR-3 ovarian): > 100 µM
TGI (OVCAR-4 ovarian): > 100 µM
TGI (OVCAR-5 ovarian): > 100 µM
TGI (OVCAR-8 ovarian): > 100 µM
TGI (PC-3 prostate): > 100 µM
TGI (RPMI-8226 leukemia): > 100 µM
TGI (RXF 393 renal): > 100 µM
TGI (SF-268 CNS): > 100 µM
TGI (SF-295 CNS): > 100 µM
TGI (SF-539 CNS): > 100 µM
TGI (SK-MEL-2 melanoma): > 100 µM
TGI (SK-MEL-28 melanoma): > 100 µM
TGI (SK-MEL-5 melanoma): > 100 µM
TGI (SK-OV-3 ovarian): > 100 µM
TGI (SN12C renal): > 100 µM
TGI (SNB-19 CNS): > 100 µM
TGI (SNB-75 CNS): > 100 µM
TGI (SR leukemia): > 100 µM
TGI (SW-620 colon): > 100 µM
TGI (T-47D breast): > 100 µM
TGI (TK-10 renal): > 100 µM
TGI (U251 CNS): > 100 µM
TGI (UACC-257 melanoma): > 100 µM
TGI (UACC-62 melanoma): > 100 µM
TGI (UO-31 renal): > 100 µM

CCc1c[nH]c2ncnc(N3CC[C@](N)(CNC(=O)c4ccc(F)cc4F)C3)c12
GI50 (786-0 renal): 0.479 µM
TGI (786-0 renal): 19.8 µM
GI50 (A498 renal): 0.245 µM
TGI (A498 renal): 1.73 µM
GI50 (A549 NSCLC): 7.36 µM
TGI (A549 NSCLC): > 95.5 µM
GI50 (ACHN renal): 9.46 µM
TGI (ACHN renal): > 100 µM
GI50 (BT-549 breast): 0.797 µM
TGI (BT-549 breast): 18.1 µM
GI50 (CAKI-1 renal): 8.62 µM
TGI (CAKI-1 renal): > 63.6 µM
GI50 (CCRF-CEM leukemia): 2.72 µM
TGI (CCRF-CEM leukemia): > 91.2 µM
GI50 (COLO 205 colon): 8.12 µM
TGI (COLO 205 colon): > 64.8 µM
GI50 (DU-145 prostate): 18.3 µM
TGI (DU-145 prostate): > 100 µM
GI50 (HCC-2998 colon): 11.5 µM
TGI (HCC-2998 colon): > 100 µM
GI50 (HCT-116 colon): 8.91 µM
TGI (HCT-116 colon): > 100 µM
GI50 (HCT-15 colon): 15.5 µM
TGI (HCT-15 colon): > 100 µM
GI50 (HL-60(TB) leukemia): 56.2 µM
TGI (HL-60(TB) leukemia): > 100 µM
GI50 (HOP-62 NSCLC): 12.8 µM
TGI (HOP-62 NSCLC): > 100 µM
GI50 (HOP-92 NSCLC): 0.23 µM
TGI (HOP-92 NSCLC): 7.57 µM
GI50 (HS 578T breast): 0.513 µM
TGI (HS 578T breast): 24.3 µM
GI50 (HT29 colon): 3.1 µM
TGI (HT29 colon): > 100 µM
GI50 (IGROV1 ovarian): 0.207 µM
TGI (IGROV1 ovarian): 6.67 µM
GI50 (K-562 leukemia): > 54.1 µM
TGI (K-562 leukemia): > 100 µM
GI50 (KM12 colon): 1.25 µM
TGI (KM12 colon): > 100 µM
GI50 (LOX IMVI melanoma): 26.2 µM
TGI (LOX IMVI melanoma): > 100 µM
GI50 (M14 melanoma): 15.6 µM
TGI (M14 melanoma): > 100 µM
GI50 (MALME-3M melanoma): 3.4 µM
TGI (MALME-3M melanoma): 39.5 µM
GI50 (MCF7 breast): 0.716 µM
TGI (MCF7 breast): > 100 µM
GI50 (MDA-MB-231 breast): 48.5 µM
TGI (MDA-MB-231 breast): > 100 µM
GI50 (MDA-MB-435): 12.8 µM
TGI (MDA-MB-435): > 79.7 µM
GI50 (MOLT-4 leukemia): 0.439 µM
TGI (MOLT-4 leukemia): 46.2 µM
GI50 (NCI-H226 lung): 5.75 µM
TGI (NCI-H226 lung): > 77.7 µM
GI50 (NCI-H23 lung): 18.6 µM
TGI (NCI-H23 lung): > 100 µM
GI50 (NCI-H460 lung): 1.78 µM
TGI (NCI-H460 lung): > 100 µM
GI50 (NCI-H522 lung): 30.1 µM
TGI (NCI-H522 lung): > 100 µM
GI50 (NCI/ADR-RES ovarian): > 61.2 µM
TGI (NCI/ADR-RES ovarian): > 100 µM
GI50 (OVCAR-3 ovarian): 11.4 µM
TGI (OVCAR-3 ovarian): > 100 µM
GI50 (OVCAR-4 ovarian): 53.1 µM
TGI (OVCAR-4 ovarian): > 100 µM
GI50 (OVCAR-5 ovarian): 21.7 µM
TGI (OVCAR-5 ovarian): > 100 µM
GI50 (OVCAR-8 ovarian): 28.2 µM
TGI (OVCAR-8 ovarian): > 100 µM
GI50 (PC-3 prostate): 1 µM
TGI (PC-3 prostate): > 91.7 µM
GI50 (RPMI-8226 leukemia): 20.8 µM
TGI (RPMI-8226 leukemia): > 100 µM
GI50 (RXF 393 renal): 0.244 µM
TGI (RXF 393 renal): 8.02 µM
GI50 (SF-268 CNS): 33.3 µM
TGI (SF-268 CNS): > 100 µM
GI50 (SF-295 CNS): 1 µM
TGI (SF-295 CNS): > 100 µM
GI50 (SF-539 CNS): 0.381 µM
TGI (SF-539 CNS): 29.4 µM
GI50 (SK-MEL-2 melanoma): 28 µM
TGI (SK-MEL-2 melanoma): > 100 µM
GI50 (SK-MEL-28 melanoma): 7.46 µM
TGI (SK-MEL-28 melanoma): > 100 µM
GI50 (SK-MEL-5 melanoma): 15.8 µM
TGI (SK-MEL-5 melanoma): > 52.5 µM
GI50 (SK-OV-3 ovarian): 0.973 µM
TGI (SK-OV-3 ovarian): > 62.1 µM
GI50 (SN12C renal): 24.2 µM
TGI (SN12C renal): > 100 µM
GI50 (SNB-19 CNS): 2.04 µM
TGI (SNB-19 CNS): > 100 µM
GI50 (SNB-75 CNS): 0.0768 µM
TGI (SNB-75 CNS): 7.97 µM
GI50 (SR leukemia): 2.19 µM
TGI (SR leukemia): > 66.3 µM
GI50 (SW-620 colon): 23.1 µM
TGI (SW-620 colon): > 100 µM
GI50 (T-47D breast): 0.203 µM
TGI (T-47D breast): 11.1 µM
GI50 (TK-10 renal): 1.27 µM
TGI (TK-10 renal): 50.4 µM
GI50 (U251 CNS): 0.76 µM
TGI (U251 CNS): > 100 µM
GI50 (UACC-257 melanoma): 9.22 µM
TGI (UACC-257 melanoma): > 100 µM
GI50 (UACC-62 melanoma): 3.33 µM
TGI (UACC-62 melanoma): 45.1 µM
GI50 (UO-31 renal): 1.52 µM
TGI (UO-31 renal): 47.6 µM
